A short description of series [1]: blood midazolam concentrations after oral midazolam in wild-type, HRN and Ad-3A4/red virus-infected HRN mice. Conditions: oral 2.5 mg/kg midazolam.
Series [2] concerns Chinese Hamster Ovary (CHO) cell line transfected with human cytochrome P450 2D6 (CYP2D6). The experiment in a line: metabolism of midazolam or bufuralol in CHO cells transfected with human CYP2D6, with or without Ad-3A4/red infection. The following applies: CHO/2D6 cells uninfected or infected with control Ad-GFP; 10 μM, four hours.

`Cc1ncc2n1-c1ccc(Cl)cc1C(c1ccccc1F)=NC2` [midazolam]: the peak midazolam concentration in series [1] (HRN mice infected with Ad-3A4/red virus (72 h before)) worked out at 109 ng/mL. For the same compound, in series [1] (non-infected HRN mice), the “circulating midazolam concentration, peak value” was 260 ng/mL and the “time circulating midazolam remained detectable” value is over 6 h. In addition, in series [1] (wild-type mice), the “circulating midazolam concentration, peak value” came out at 128 ng/mL and the “time until circulating midazolam became undetectable again” value is at most 3 h. For the same compound, the “midazolam metabolism (1'-hydroxymidazolam formation)” value in series [2] is on record as “extremely slow”.

The values above are taken from US20090013417A1, “Transgenic Animals for Assessing Drug Metabolism and Toxicity in Man” (IMPERIAL CANCER RESEARCH TECHNOLOGY LIMITED, priority 2004, published 2009).
